From paper PMC3849007 (Journal of Experimental & Clinical Cancer Research : CR, 2013) come the findings set out here.

One data set deals with T1, hERG (Homo sapiens, UniProt Q12809).
T1 construct: expressed in transfected cells; host or cells: HEK293
As to the kind of experiment: hERG tail current inhibition, patch clamp assay. Particulars: human, HEK293 cells (hERG study), 10 μM, HEK293 cells, read-out: hERG % inhib. (10 μM). The format is cell-based. The procedure: (§1) For hERG study, HEK293 cells were cultured (1–7 days) in DMEM/GlutaMax-1 + 10% FBS and were plated on collagen-coated dishes (about 2×10^4 cells/dish). The cell was held at -80 mV. A 50-millisecond pulse to -40 mV was delivered to measure the leaking currents, which were subtracted from the tail currents online. […] This paradigm was delivered once every 5 seconds to monitor the current amplitude. After the current amplitude stabilized, the test compound was delivered to the extracellular medium by a rapid solution changer perfusion system. During perfusion, the cell was repetitively stimulated with the protocol described above, and the current amplitude was continuously monitored. Data were acquired and analyzed by using pClamp (Axon Instruments), and Excel (Microsoft), and are reported as mean and individual values. The degree of inhibition (%) was obtained by measuring the tail current amplitude before and after drug superfusion (the difference current was normalized to control and multiplied by 100 to obtain the percent of inhibition). […] The concentration-response relationship of each compound was constructed from the percentage reductions of current amplitude by sequential concentrations. β2-adrenergic receptor CHO expressing cells were used for the receptor inhibition assay as described. The results are expressed as a percent of inhibition of control specific binding (100 - (measured specific binding/control specific binding) × 100)) obtained in the presence of the test compounds. The specific ligand binding to the receptors is defined as the difference between the total binding and the nonspecific binding determined in the presence of an excess of unlabelled ligand. All the in-vivo experiments were carried out at the Regina Elena Cancer Institute. All procedures involving animals and care were performed in compliance with our institutional animal care guidelines and with international directives (directive 2010/63/EU of the European parliament and of the council; Guide for the Care and Use of Laboratory Animals, United States National Research Council, 2011).
(Block of hERG is tested as a sign of cardiac risk.)

In data set [1] the target is T2, hERG (human Ether-a-go-go Related Gene) tail current (Homo sapiens, UniProt Q12809).
T2 construct: expressed in transfected cells; host or cells: HEK293
T2 sequence (Q12809 whole entry): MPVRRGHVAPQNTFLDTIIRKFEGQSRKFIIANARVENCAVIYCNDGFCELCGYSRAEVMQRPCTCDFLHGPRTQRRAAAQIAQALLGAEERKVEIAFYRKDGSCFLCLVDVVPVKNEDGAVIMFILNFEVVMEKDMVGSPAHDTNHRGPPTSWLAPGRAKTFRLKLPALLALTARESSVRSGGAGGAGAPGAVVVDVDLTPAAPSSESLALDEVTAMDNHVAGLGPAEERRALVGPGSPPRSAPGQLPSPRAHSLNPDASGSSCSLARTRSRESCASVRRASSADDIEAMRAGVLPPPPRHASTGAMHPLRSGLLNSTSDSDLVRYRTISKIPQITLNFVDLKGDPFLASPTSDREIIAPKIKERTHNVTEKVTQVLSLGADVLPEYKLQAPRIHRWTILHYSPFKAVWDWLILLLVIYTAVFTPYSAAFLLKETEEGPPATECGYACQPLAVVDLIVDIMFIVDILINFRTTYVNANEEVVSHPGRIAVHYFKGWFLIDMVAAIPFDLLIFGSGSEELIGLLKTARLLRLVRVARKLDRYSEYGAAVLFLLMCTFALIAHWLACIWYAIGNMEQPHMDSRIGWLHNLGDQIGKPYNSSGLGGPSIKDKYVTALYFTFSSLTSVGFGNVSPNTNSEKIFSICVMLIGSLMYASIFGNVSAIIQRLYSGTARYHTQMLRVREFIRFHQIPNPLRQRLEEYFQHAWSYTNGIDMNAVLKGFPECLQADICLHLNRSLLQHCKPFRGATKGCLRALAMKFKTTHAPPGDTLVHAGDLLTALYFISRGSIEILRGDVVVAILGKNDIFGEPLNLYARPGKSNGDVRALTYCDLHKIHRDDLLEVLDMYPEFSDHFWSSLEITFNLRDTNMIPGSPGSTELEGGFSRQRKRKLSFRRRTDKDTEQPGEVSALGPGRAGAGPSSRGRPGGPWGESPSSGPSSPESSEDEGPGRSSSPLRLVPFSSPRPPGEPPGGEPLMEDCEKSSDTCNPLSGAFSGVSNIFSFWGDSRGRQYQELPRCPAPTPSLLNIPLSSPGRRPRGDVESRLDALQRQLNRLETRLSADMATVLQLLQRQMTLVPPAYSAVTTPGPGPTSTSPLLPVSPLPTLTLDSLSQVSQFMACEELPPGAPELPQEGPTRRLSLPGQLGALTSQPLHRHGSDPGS
As to the kind of experiment: hERG tail current inhibition, patch clamp assay. It counts as cell-based. The protocol:
as §1

Data set [2] concerns the target T3, human recombinant β2 adrenergic receptor (Homo sapiens, UniProt P07550).
T3 construct: expressed in transfected cells; host or cells: CHO
Description: β2-adrenergic receptor binding assay (CHO expressing cells). The protocol: as §1, with “Institute.” for “Institute. All procedures involving animals and care were performed in compliance with our institutional animal care guidelines and with international directives (directive 2010/63/EU of the European parliament and of the council; Guide for the Care and Use of Laboratory Animals, United States National Research Council, 2011).”
Inhibition of receptor was reported as inhibition of control specific binding (100 - (measured specific binding/control specific binding) × 100) obtained in the presence of the test compounds.

The test system of another data set is BJ-EHLT fibroblasts. Description: Proliferation assay, transformed fibroblasts. It counts as cell-based, human. Particulars: 0.5 μM, culture day 2 to 8. The procedure: BJ fibroblasts expressing hTERT (BJ-hTERT) or hTERT and SV40 early region (BJ-EHLT), were obtained as previously reported. Cells were grown in Dulbecco Modified Eagle Medium (D-MEM, Invitrogen Carlsbad, CA, USA) supplemented with 10% fetal calf serum, 2 mM L-glutamin and antibiotics.
5 × 10^4 cells were seeded in 60-mm Petri plates (Nunc, MasciaBrunelli, Milano, Italy) and 24 h after plating, 0.5 μM of freshly dissolved compound was added to the culture medium. Cell counts (Coulter Counter, Kontron Instruments, Milano, Italy) and viability (trypan blue dye exclusion) were determined daily, from day 2 to day 8 of culture.

Data set [3] has as its system h-Tel quadruplex DNA 5′-d[AGGG(TTAGGG)3]-3′. Description: Surface plasmon resonance, quadruplex DNA. The note with it: for Surface plasmon resonance K, Quadruplex (Q) DNA: 10 mM HEPES, 200 mM KCl, 3 mM EDTA, 0.01% P20, pH 7.4, equilibrium binding constant.
Description: Oligonucleotides 5′-biotin-d[AG3(T2AG3)3] quadruplex and 5′-biotin-CGA3T3C(CT)2GA3T3CG were purchased from Midland Certified Reagent Company (Midland, TX).
In the present work these measurements were repeated comparing ligand binding to the same h-Tel sequence but with a different duplex sequence 5′-d[CGA3T3C(CT)2GA3T3CG]-3′ as comparator.
The subject of data set [4] is h-Tel 5'-d[AGGG(TTAGGG)3]-3' (DNA, G4) AGGGTTAGGGTTAGGGTTAGGG
Description: CD spectroscopy, induced anti-parallel structure. Particulars: no significant K+; 298 K; 3.5 molar equivalents of ligand; band at 290 nm emerges.

T3 sequence (P07550 whole entry): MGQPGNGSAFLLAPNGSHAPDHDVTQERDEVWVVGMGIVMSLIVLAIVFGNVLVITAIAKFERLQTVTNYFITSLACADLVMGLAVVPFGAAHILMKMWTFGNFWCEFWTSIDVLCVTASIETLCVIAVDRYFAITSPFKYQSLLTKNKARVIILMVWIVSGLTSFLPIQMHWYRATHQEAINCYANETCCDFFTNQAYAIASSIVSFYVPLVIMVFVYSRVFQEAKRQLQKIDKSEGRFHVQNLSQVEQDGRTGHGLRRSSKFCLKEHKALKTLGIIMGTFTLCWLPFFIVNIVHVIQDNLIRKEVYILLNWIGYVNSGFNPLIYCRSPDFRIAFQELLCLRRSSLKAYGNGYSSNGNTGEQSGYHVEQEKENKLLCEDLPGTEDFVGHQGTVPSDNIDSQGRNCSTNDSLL
T1 sequence (Q12809 whole entry): as the sequence (Q12809 whole entry) above

What is called IC50 is the concentration that inhibits the measured activity by half. In the case of `CC(=O)Nc1ccc2c(c1)c1cccc3c1c([n+]2C)-c1ccccc1N3C` [Compound 3, 3-acetylamino-8,13-dimethyl-8H-quino[4,3,2-kl]-acridinium iodide], the inhibition at 10 µM on hERG worked out at 21%. In addition, the IC50 in data set [1] is 18 µM. The “B2 adrenergic % inhib. (10 μM)” value in data set [2] (10 μM, inhibition of control specific binding, CHO cells) is reported as 29%. Besides, in the data set on BJ-EHLT fibroblasts, the “day of maximum effect on cell proliferation” value was “seven”. In addition, the “Surface plasmon resonance K, Quadruplex (Q) DNA” value in data set [3] amounted to 8e+06 M⁻¹. Also, in data set [4], the binding result was “yes”.
With `Cc1cc2c3c([n+](C)c4ccc(F)cc4c3c1)-c1cc(F)ccc1N2C` [Compound 1, 3,11-Difluoro-6,8,13-trimethyl-8H-quino[4,3,2-kl]acridinium metho-sulfate], the inhibition at 10 µM on hERG came to 100%; in data set [2] (10 μM, inhibition of control specific binding, CHO cells, read-out: B2 adrenergic % inhib. (10 μM)) it was 100%. In data set [1], this compound displayed a concentration for half-maximal inhibition (IC50) of 0.2 µM. For the same compound, the inhibition at 1 µM in data set [2] (1 μM, Cerep ExpresSProfile screen, read-out: % inhibition of ligand binding, β2 adrenergic receptor) is above 95%. The “day of maximum effect on cell proliferation” value in the data set on BJ-EHLT fibroblasts was found to be 6 days. Moreover, the “Surface plasmon resonance K, Quadruplex (Q) DNA” value in data set [3] was 8.3e+06 M⁻¹. Also, the “Ratio Q/D (SPR)” value in data set [3] (quadruplex K / duplex K) is 13.8. The binding result in data set [4] was “yes”.
